# In US10752901B2, “Inhibition of ferrochelatase as an antiangiogenic therapy” (Indiana University Research and Technology Corporation, priority 2015, dated 2020):
# Experiments:
# [1] = target: T1, ferrochelatase (Sus scrofa, UniProt F1S1X4); test: Photoaffinity pull down from porcine brain lysate; type: binding; settings: competition with excess (1 mM) cremastranone isomer; immunoblot band intensity
# T1 construct: from tissue; host or cells: porcine brain lysate (S2 and S3 supernatants)
# T1 sequence (F1S1X4 1-433): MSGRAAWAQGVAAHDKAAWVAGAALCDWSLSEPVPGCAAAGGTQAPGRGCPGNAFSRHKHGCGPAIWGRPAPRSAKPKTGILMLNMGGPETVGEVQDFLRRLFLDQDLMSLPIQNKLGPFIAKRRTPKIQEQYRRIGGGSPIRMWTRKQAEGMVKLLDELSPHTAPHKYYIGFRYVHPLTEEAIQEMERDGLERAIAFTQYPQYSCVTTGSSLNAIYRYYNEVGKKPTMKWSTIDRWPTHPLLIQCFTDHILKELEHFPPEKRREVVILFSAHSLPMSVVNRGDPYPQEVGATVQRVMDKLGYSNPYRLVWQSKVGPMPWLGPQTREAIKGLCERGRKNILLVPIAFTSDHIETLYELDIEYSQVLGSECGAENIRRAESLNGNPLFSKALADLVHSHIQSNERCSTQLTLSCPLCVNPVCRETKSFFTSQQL
# Description: Synthesis and characterization of affinity reagents 2 and 3 are shown in WO2014182695A1, filed May 6, 2014, and incorporated by reference to the extent it is consistent herewith. Compounds 1 and 4 were synthesized as described in Lee et al., Org Biomol Chem 28, p. 28 (2014); Basavarajappa et al., PLoS One 9, e95694 (2014). For pulldowns, Neutravidin agarose beads (1 mL of 50% slurry) were washed three times in buffer A containing 25 mM Tris-HCl pH 7.4, 150 mM NaCl, 2.5 mM sodium pyrophosphate, 1 mM phenylmethylsulfonyl fluoride (PMSF), 0.1 mM sodium orthovanadate, 10 μg/mL aprotinin and 10 μg/mL leupeptin. The beads were then incubated with 100 μM affinity or control reagents 2 or 3 overnight at 4° C. with rotation. […]
# The beads were collected by centrifugation at 500×g for 5 minutes, then resuspended in 1 mL of buffer B and irradiated with 365 nm UV light (Mercury bulb H44GS100 from Sylvania in a Black-Ray 100 A long-wave UV lamp) in a 60 mm Petri dish for 30 minutes at 4° C. […] The eluates were then analyzed in 4-20% gradient SDS-PAGE and the protein bands were visualized using silver staining. The protein bands pulled down specifically by photo-affinity reagent were excised from the silver stained SDS-PAGE gel and analyzed by mass spectrometry (IUSM Proteomics Core). […]
# [2] = system: HRECs; test: Cell proliferation assay (alamarBlue), HRECs; type: cell-based, human
# Description: Proliferation of cells was monitored as described in Basavarajappa et al., PLoS One 9 (2014). Briefly, after FECH knockdown 2,500 cells in 100 μL of growth medium were plated in each well of 96-well clear-bottom black plates and incubated for 24 hours. Then, compound/DMSO vehicle (final DMSO concentration of 1%) were added and the plates were incubated for 44 hours in 100 μL media at 37° C. and 5% CO2. Then, 11.1 μL of alamarBlue reagent was added to each well of the plate and 4 hours later fluorescence readings were taken at excitation and emission wavelengths of 560 nm and 590 nm respectively using a Synergy H1 plate reader (BioTek, Winooski, Vt., USA). The concentration ranges of griseofulvin and NMPP used were 0.5 nM-500 μM and 0.1 nM-100 μM respectively.
# [3] = system: endothelial cells; test: Anti-proliferative activity of cremastranone; type: cell-based, human; settings: endothelial versus non-endothelial cells
# [4] = target: T2, FECH (Homo sapiens, UniProt P22830); test: PPIX build-up assay; type: cell-based; settings: HRECs, 5-ALA induced
# T2 construct: host or cells: HRECs (human retinal endothelial cells)
# T2 sequence (P22830 55-423): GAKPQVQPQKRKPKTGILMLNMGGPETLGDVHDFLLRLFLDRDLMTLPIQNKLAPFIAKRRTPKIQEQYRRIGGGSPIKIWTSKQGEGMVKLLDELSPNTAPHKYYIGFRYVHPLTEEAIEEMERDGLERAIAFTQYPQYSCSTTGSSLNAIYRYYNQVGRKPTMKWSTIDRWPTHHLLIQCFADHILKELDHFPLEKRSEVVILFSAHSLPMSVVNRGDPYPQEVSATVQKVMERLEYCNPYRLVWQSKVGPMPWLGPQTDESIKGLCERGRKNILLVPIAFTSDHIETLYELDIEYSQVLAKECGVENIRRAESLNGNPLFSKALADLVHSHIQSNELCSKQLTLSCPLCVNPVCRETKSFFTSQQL
# Description: HRECs were grown in a 6-well plate until confluent. Then, cells were serum starved overnight in EBM-2 medium. Fresh EGM-2 medium containing DMSO or compounds was added to cells, and they were incubated at 37° C. for 1 hour followed by addition of 1 mM 5-ALA to increase flux through the heme biosynthetic pathway. After 3 hours of incubation in the dark at 37° C., the cells were trypsinized and lysed in buffer containing 25 mM HEPES-NaOH pH 7.4, 150 mM NaCl, 1% NP-40, 10% glycerol and 1 mM PMSF. The cell lysates were incubated in the dark at 4° C. for 20 minutes on a shaker and centrifuged at 12000×g for 15 minutes. Supernatants were collected for analysis. In a 384-well black plate, 20 μL of supernatant was mixed with 20 μL of 1:1 solution of 2 M perchloric acid and methanol. After 5 minutes of incubation, fluorescence readings were taken at excitation and emission wavelengths of 407 nm and 610 nm using the Synergy plate reader.
# [5] = system: HRECs; test: In vitro Matrigel tube formation assay; type: cell-based, human
# Description: The ability of HRECs to form tubes in vitro was monitored as described in Basavarajappa et al., J Med Chem 58, pp. 5015-5027 (2015). Briefly, HRECs were treated with the indicated concentrations of compounds or DMSO or siRNAs for 48 hours and then 15,000 HRECs in 100 μL of EGM-2 medium containing siRNAs, DMSO or compounds were added to each well of a 96-well plate that was pre-coated with 50 μL of Matrigel basement membrane. Photographs of each well at different time points were taken to measure the tube formation using the Angiogenesis Analyzer plugin in ImageJ software (v.1.48).
# [6] = antifungal treatment of humans; cited from earlier work
# [7] = system: choroidal neovascularization; test: L-CNV model (laser-induced choroidal neovascularization); type: in vivo, mouse; settings: L-CNV mice
# [8] = system: HRECs; test: Scratch-wound migration assay; type: cell-based, human
# Description: The migration of HRECs was monitored as described in Basavarajappa et al., PLoS One 9, e95694 (2014). Briefly, HRECs were grown until confluency in 6-well plates and then serum starved overnight in EBM-2 medium. Then, using a sterile 10 μL tip, a scratch was introduced in each well and fresh EGM-2 medium containing DMSO or different concentrations of compounds was added to the wells. For knockdown experiments, the scratch was introduced 48 hours after transfection and fresh medium was added to the wells. Photographs of the wells were taken at different time points to measure the number of migrated cells into the scratched area.
# [9] = Oral griseofulvin systemic effects (mouse and liver weights); type: in vivo; settings: oral feeding
# Description: Mice were fed griseofulvin for a total of 3 weeks, with chow changed every 2-3 days. Standard mouse chow (5 g/mouse/day) was mixed in water (2.2 mL H2O/gram chow), soaked for 15 minutes, then mashed. Griseofulvin doses were prepared at 0.0% (control), 0.5%, and 1.0% with 0.0 g, 0.5 g, and 1.0 g griseofulvin: 10 mL corn oil: 100 g mouse chow ratio, respectively. […] The corn oil solutions and mouse chow mixture were manually mixed thoroughly for 10 minutes. During treatment, the mice were examined and weighed 3 times/week (FIG. 1A). On Day 8, mice underwent L-CNV as above, and were imaged by OCT at Day 15 and Day 22, at which time they were euthanized. The eyes were enucleated and flatmounts prepared as above. The livers were dissected out and weighed (FIG. 1B).
# [10] = system: mouse choroid-sclera; test: Choroidal sprouting assay; type: cell-based; settings: ex vivo, 48 hours with compound
# Description: To assess choroidal sprouting, pieces of choroid-sclera dissected from euthanized mouse eyes were embedded in Matrigel and grown in EGM-2 medium plus antibiotics for 72 hours to allow sprouting to initiate. The indicated concentrations of griseofulvin (in DMSO, final DMSO concentration 1%) were added and growth allowed to proceed for 48 hours. Images were taken and growth quantified by measuring distance from the edge of the choroidal piece to the growth front in 4 directions per sample.
compound,measurement,setting,value
"COc1ccc(CC2COc3cc(OC)c(O)c(O)c3C2=O)cc1O (single isomer, unassigned) [cremastranone isomer]",decrease of binding of ferrochelatase to affinity reagent,[1],87%
COc1ccc(CC2COc3cc(O)c(OC)c(O)c3C2=O)cc1O (centres unmarked) [cremastranone],rescue of antiproliferative effects by excess 5-ALA,"[2]; HRECs, addition of 5-aminolevulinic acid",partially rescued
same,antiproliferative effects,[3],selective antiproliferative effects on endothelial cells
same,buildup of PPIX,[4],dose-dependent buildup of PPIX
COC1=CC(=O)C[C@@H](C)[C@]12Oc1c(Cl)c(OC)cc(OC)c1C2=O [griseofulvin],proliferation of HRECs,[2],dose-dependent antiproliferative effects
same,concentration of griseofulvin needed to have effects,"[2]; HRECs in vitro (proliferation, migration, tube formation)",~10 µM
same,tube formation ability of HRECs,[5],inhibition of tube formation
same,concentration attained in plasma,[6],1 to 2 µg/mL
same,neovascularization,[7]; feeding 0.5% and 1% in chow,decreased neovascularization
same,neovascularization,"[7]; single intravitreal injection 50 μM, 100 μM",dose-dependent results
same,migration of HRECs,[8],inhibition of migration
same,liver weights,[9],increased
same,mouse weights,[9]; experimental timecourse,did not significantly change
same,formation of microvascular sprouts,[10],inhibited formation of microvascular sprouts
N-methyl protoporphyrin [NMPP],proliferation of HRECs,[2],inhibited
same,tube formation ability of HRECs,[5],inhibited
same,migration of HRECs,[8],inhibited
